Measurements as given in patent US5086066A, “Method of providing anxiolytic and antipsychotic treatment with substituted benzamides” (priority 1988, dated 1992).

Tests used:
[1] = acute toxicity, median lethal dose (LD50) intravenously; settings: mouse, in vivo, iv
Text: The compounds of the invention were also subjected to a study of acute toxicity when injected intravenously in male mice and female mice, which enabled the median lethal doses (LD50) to be determined.

[2] = tested on: mice; experiment: two compartment (dark and light) box test, anxiolytic activity; assay type: in vivo; settings: for % time in black compartment / Black compartment rearings/5 min / Black compartment transits/5 min / Delay white → black / White compartment rearings/5 min / White compartment transits/5 min: 40 min after administration, S.E.M. <12.6%, n = 5; for minimal effective dose: Mus musculus, sc, 40 min, subcutaneous, mice, read-out: dose at and above which anxiolytic activity is manifested
Procedure: The two compartment box test was conducted in mice to evaluate anxiolytic activity. This test is based on a natural aversion of mice to light. The apparatus used is a box containing two compartments, one of which is dark (labeled "black compartment" in the Table 1) and the other illuminated (labeled "white compartment" in Table 1). The apparatus is designed to allow the animal to choose between staying in either of the two compartments. Under normal conditions, the mice avoid light and usually remain in the dark compartment. Under the influence of an anxiolytic agent, however, exploration of the illustrated compartment predominates. The test consists of placing each mouse in the center of the illuminated compartment and observing the animal's behavior by video system for 5 minutes. The number of exploratory rearings and the number of displacements (the crossing of lines traced on the floor of each compartment constitute "passages") are then recorded for each compartment. An anxiolytic effect induced by a drug, such as diazepam, is characterized by an increase in the number of exploratory rearings and in the number of passages into the illuminated compartment. The compounds of the invention were injected subcutaneously at variable doses, each dose being administered to a group of 5 mice.

[3] = tested on: rats; experiment: hyperactivity induced by injection of amphetamine into the nucleus accumbens (motor activity), antipsychotic activity; assay type: in vivo
Procedure: Tests were conducted to measure the antipsychotic activity of the compounds of the invention. In particular, the hyperactivity induced in rats by the perfusion of amphetamine into the nucleus accumbens was evaluated. This test consists in determining the effect of the compounds of the invention on hyperactivity produced in rats by the injection of amphetamine into the nucleus accumbens. Hyperactivity was induced by injecting 20 μg of amphetamine bilaterally into the nucleus accumbens. The compounds of the invention were administered subcutaneously at doses of 1 mg/kg and 10 mg/kg, 40 minutes before the injection of amphetamine. For each dose of test product, a group of 5 animals was used. A group treated only with amphetamine and a reference group which received only an inert vehicle comprised 10 animals.
Immediately after the injection of amphetamine, the rats were placed in individual cages equipped with photoelectric cells. Motor activity, characterized by the number of shifts from place to place in these cages, was determined by the number of interruptions of a light beam striking these cells. The measurements were made during the 80 minutes following the injection of amphetamine. The results, expressed as the number of shifts from place to place per 10-minute period, are collated in Table 2.

[4] = 1 mg/kg s.c. 40 min before amphetamine 20 μg, time 10 min
[5] = 1 mg/kg s.c. 40 min before amphetamine 20 μg, time 20 min
[6] = 1 mg/kg s.c. 40 min before amphetamine 20 μg, time 30 min
[7] = 1 mg/kg s.c. 40 min before amphetamine 20 μg, time 40 min
[8] = 1 mg/kg s.c. 40 min before amphetamine 20 μg, time 50 min
[9] = 1 mg/kg s.c. 40 min before amphetamine 20 μg, time 60 min
[10] = 1 mg/kg s.c. 40 min before amphetamine 20 μg, time 70 min
[11] = 10 mg/kg s.c. 40 min before amphetamine 20 μg, time 10 min
[12] = 10 mg/kg s.c. 40 min before amphetamine 20 μg, time 20 min
[13] = 10 mg/kg s.c. 40 min before amphetamine 20 μg, time 30 min
[14] = 10 mg/kg s.c. 40 min before amphetamine 20 μg, time 40 min
[15] = 10 mg/kg s.c. 40 min before amphetamine 20 μg, time 50 min

| Compound | LD50 ([1]; female mice) [mg/kg] | LD50 ([1]; male mice) [mg/kg] | % time in black compartment ([2]; 0.01 mg/kg s.c.) [%] | Black compartment rearings/5 min ([2]; 0.01 mg/kg s.c.) [rearings/5 min] | Black compartment transits/5 min ([2]; 0.01 mg/kg s.c.) [transits/5 min] | Delay white → black ([2]; 0.01 mg/kg s.c.) [s] | White compartment rearings/5 min ([2]; 0.01 mg/kg s.c.) [rearings/5 min] | White compartment transits/5 min ([2]; 0.01 mg/kg s.c.) [transits/5 min] | % time in black compartment ([2]; 0.1 mg/kg s.c.) [%] | Black compartment rearings/5 min ([2]; 0.1 mg/kg s.c.) [rearings/5 min] | Black compartment transits/5 min ([2]; 0.1 mg/kg s.c.) [transits/5 min] | Delay white → black ([2]; 0.1 mg/kg s.c.) [s] | White compartment rearings/5 min ([2]; 0.1 mg/kg s.c.) [rearings/5 min] | White compartment transits/5 min ([2]; 0.1 mg/kg s.c.) [transits/5 min] | minimal effective dose [2] [mg/kg] | Motor activity [3, 4] | Motor activity [3, 5] | Motor activity [3, 6] | Motor activity [3, 7] | Motor activity [3, 8] | further results |
| --- | --- | --- | --- | --- | --- | --- | --- | --- | --- | --- | --- | --- | --- | --- | --- | --- | --- | --- | --- | --- | --- |
| CCN(CC)CCNC(=O)c1cc(Cl)c(NC2=NC(C)CN2)cc1OC (centres unmarked) [Compound 1, N-[2-(diethylamino)ethyl]-2-methoxy-4-[(4,5-dihydro-4-methyl-1H-imidazol-2-yl)amino]-5-chlorobenzamide] | 24 | 19.5 | 36 | 16 | 37 | 19 | 57 | 77 | 27 | 14 | 23 | 22 | 73 | 79 | ≥ 0.01 | 49 ± 9 shifts from place to place/10 minutes | 35 ± 3 shifts from place to place/10 minutes | 45 ± 8 shifts from place to place/10 minutes | 40 ± 8 shifts from place to place/10 minutes | 11 ± 3 shifts from place to place/10 minutes | Motor activity [3, 9]: 12 ± 2 shifts from place to place/10 minutes; Motor activity [3, 10]: 8 ± 1 shifts from place to place/10 minutes; Motor activity [3, 11]: 27 ± 4 shifts from place to place/10 minutes; Motor activity [3, 12]: 27 ± 6 shifts from place to place/10 minutes; Motor activity [3, 13]: 13 ± 3 shifts from place to place/10 minutes; Motor activity [3, 14]: 11 ± 2 shifts from place to place/10 minutes; Motor activity [3, 15]: 8 ± 2 shifts from place to place/10 minutes |
| CCN1CCCC1CNC(=O)c1cc(Br)c(NC2=NC(C)CN2)cc1OC (centres unmarked) [Compound 4, N-(1-ethyl-2-pyrrolidinylmethyl)-2-methoxy-4-[(4,5-dihydro-4-methyl-1H-imidazol-2-yl)amino]-5-bromobenzamide] | 18 | 15.5 | 31 | 15 | 20 | 22 | 82 | 83 | 34 | 16 | 24 | 38 | 78 | 99 | ≥ 0.0001 | 34 ± 8 shifts from place to place/10 minutes | 60 ± 13 shifts from place to place/10 minutes | 40 ± 10 shifts from place to place/10 minutes | 38 ± 13 shifts from place to place/10 minutes | 37 ± 10 shifts from place to place/10 minutes | % time in black compartment ([2]; 0.0001 mg/kg s.c.): 27%; Black compartment rearings/5 min ([2]; 0.0001 mg/kg s.c.): 19 rearings/5 min; Black compartment transits/5 min ([2]; 0.0001 mg/kg s.c.): 21 transits/5 min; Delay white → black ([2]; 0.0001 mg/kg s.c.): 23 s; White compartment rearings/5 min ([2]; 0.0001 mg/kg s.c.): 73 rearings/5 min; White compartment transits/5 min ([2]; 0.0001 mg/kg s.c.): 82 transits/5 min; Motor activity [3, 9]: 16 ± 2 shifts from place to place/10 minutes; Motor activity [3, 10]: 8 ± 3 shifts from place to place/10 minutes; Motor activity ([3]; 1 mg/kg s.c. 40 min before amphetamine 20 μg, time 80 min): 4 ± 2 shifts from place to place/10 minutes; Motor activity [3, 11]: 38 ± 7 shifts from place to place/10 minutes; Motor activity [3, 12]: 8 ± 1.4 shifts from place to place/10 minutes; Motor activity [3, 13]: 9 ± 3 shifts from place to place/10 minutes; Motor activity [3, 14]: 11 ± 1.6 shifts from place to place/10 minutes; Motor activity [3, 15]: 5 ± 1 shifts from place to place/10 minutes; Motor activity ([3]; 10 mg/kg s.c. 40 min before amphetamine 20 μg, time 60 min): 2 ± 1 shifts from place to place/10 minutes |
